Reference: patent US20240425464A1, “Substituted Monohydrazides as Potent Antifungal Agents” (University of Kentucky Research Foundation, priority 2023, published 2024)
In brackets after ≈: the same amount, converted by molar mass. Read-outs that look alike come from different tables or passages of the source.

Columns and labels:
Assay type in all cases: cell-based, Candida albicans
[1] = system: C. albicans ATCC MYA-1237 (F); experiment: MIC determination by in vitro antifungal assay; conditions: strain F = C. albicans ATCC MYA-1237(R)
Protocol: (§1) 10 mg/mL stock solutions of compounds 1a-9j were prepared in dimethyl sulfoxide (DMSO) and were stored at −20° C. in the dark. The antifungal agent amphotericin B (AmB) was purchased from VWR (Radnor PA, USA). AmB was dissolved in DMSO at a final concentration of 5 mg/mL and was stored at −20° C., protected from light. Candida albicans American Type Culture Collection (ATCC) 10231 (strain A), C. albicans ATCC 64124 (B), and C. albicans ATCC MYA-2876 (C) were obtained from Utah State University. C. albicans ATCC 90819 (D), C. albicans ATCC MYA-2310 (E), C. albicans ATCC MYA-1237 (F), C. albicans ATCC MYA-1003 (G), Candida glabrata ATCC 2001 (H), Candida krusei ATCC 6258 (I), Candida parapsilosis ATCC 22019 (J), Cryptococcus neoformans ATCC MYA-895 (M), Aspergillus terreus ATCC MYA-3633 (N), and Aspergillus flavus ATCC MYA-3631 (0) were obtained from the American Type Culture Collection (ATCC; Manassas, VA, USA). Aspergillus nidulans ATCC 38163 (P) was obtained from University of Kentucky. Clinically derived Aspergillus fumigatus NRRL 163 (Q), A. fumigatus NRRL 5109 (R), and A. fumigatus NRRL 6113 (S) were obtained from Northern Regional Research Laboratory (NRRL). Candida auris 384 (K), C. auris 390 (L), and fungal strains 381-400 (including 10 C. auris (AR Bank #381-390), 3 Candida duobushaemulonii (AR Bank #391, AR Bank #392, and AR Bank #394), 2 Candida haemulonii (AR Bank #393 and AR Bank #395), 1 Kodameae ohmeri (AR Bank #396), 1 C. krusei (AR Bank #397), 1 Candida lusitaniae (AR Bank #398), and 2 Saccharomyces cerevisiae strains (AR Bank #399 and AR Bank #400)) were part of a larger fungal library from the AR Bank maintained by the Centers for Disease Control and Prevention (CDC; Atlanta, GA, USA). Filamentous fungi and yeasts were cultivated at 35° C. in RPMI 1640 medium (with L-glutamine, without sodium bicarbonate, Sigma-Aldrich, St. Louis, MO) buffered to a pH of 7.0 with 0.165 M morpholinepropanesulfonic acid (MOPS) buffer (Sigma-Aldrich). For cytotoxicity assays, HepG2 and the mouse macrophage cell line J774A.1 were obtained from University of Kentucky. The human embryonic kidney cell line, HEK-293, was bought from the ATCC. Mammalian cells were grown in Dulbecco's Modified Eagle's Medium (DMEM) (from VWR) with 10% fetal bovine serum (FBS) (from VWR) and 1% Pen/Strep (from ATCC). Cell lines were cultured at 37° C. with 5% CO2 and passaged by trypsinization with 0.05% trypsin: 0.53 mM EDTA (from Sigma-Aldrich).
(§2) The MIC values of compounds 1a-9j against yeast cells (strains A-P and 381-400) were determined in 96-well plates as described in the CLSI documents M27-A3 and M38-A2 with minor modifications.^2 A single colony of freshly prepared yeast cells was used to inoculate 5 mL of yeast extract peptone dextrose (YPD) broth prior to incubation overnight with shaking at 200 rpm at 35° C. From the actively growing yeast culture, 100 µL were then transferred to 900 μL of RPMI 1640 medium and re-adjusted to achieve OD600 of 0.12 (˜1×10^6 CFU/mL). The cell suspension was further diluted to achieve 1:100 in RPMI 1640 medium. 100 μL of cells were added to the wells of a 96-well microtiter plates that contained 100 µL of the compound solution to obtain concentrations of 0.06-31.3 μg/mL of compounds 1a-9j or AmB prior to incubation for 48 h at 35° C. […]

[2] = system: C. albicans ATCC MYA-1003 (G); experiment: MIC determination by in vitro antifungal assay; conditions: strain G = C. albicans ATCC MYA-1063(R) (footnote), MYA-1003 in text
Protocol: as §1, §2

[3] = system: C. albicans ATCC MYA-2876 (C); experiment: MIC determination by in vitro antifungal assay; conditions: strain C = C. albicans ATCC MYA-2876(S)
Protocol: as §1, §2

[4] = system: C. albicans ATCC 90819 (D); experiment: MIC determination by in vitro antifungal assay
Protocol: as §1, §2

[5] = system: C. albicans ATCC 64124 (B); experiment: MIC determination by in vitro antifungal assay
Protocol: as §1, §2

[6] = system: C. albicans ATCC MYA-2310 (E); experiment: MIC determination by in vitro antifungal assay; conditions: strain E = C. albicans ATCC MYA-2310
Protocol: as §1, §2

[7] = system: C. albicans ATCC 10231 (strain A); experiment: MIC determination by in vitro antifungal assay (CLSI broth dilution); conditions: strain A = C. albicans ATCC 10231, no visible growth, 48 h at 35° C.
Protocol: as §1, §2

[8] = Candida albicans, read-out: MIC
[9] = Candida albicans, ATCC90819, strain D = C. albicans ATCC 90819(R), read-out: MIC
[10] = Candida albicans, ATCC64124, strain B = C. albicans ATCC 64124, read-out: MIC
[11] = Candida albicans, ATCC10231, 48 h, read-out: MIC
[12] = strain D = C. albicans ATCC 90819(R)
[13] = strain B = C. albicans ATCC 64124

SMILES | MIC [1, 8] | MIC [2, 8] | MIC [3, 8] | MIC [4, 9] | MIC [5, 10] | MIC [6, 8] | MIC [7, 11] | MIC [1] | MIC [2] | MIC [3] | MIC [4, 12] | MIC [5, 13] | MIC [6] | MIC [7]
COc1ccc(NNC(=O)c2ccccn2)cc1 [Compound 2f] | 0.98 µg/mL (≈ 4.03 µM) | 0.98 µg/mL (≈ 4.03 µM) | 1.95 µg/mL (≈ 8.02 µM) | 0.49 µg/mL (≈ 2.01 µM) | 0.98 µg/mL (≈ 4.03 µM) | 0.98 µg/mL (≈ 4.03 µM) | 0.12 µg/mL (≈ 0.493 µM) | – | – | – | – | – | – | –
O=C(NNc1ccc(F)cc1F)c1ccccn1 [Compound 2g] | 0.49 µg/mL (≈ 1.97 µM) | 0.49 µg/mL (≈ 1.97 µM) | 0.98 µg/mL (≈ 3.93 µM) | 0.98 µg/mL (≈ 3.93 µM) | 1.95 µg/mL (≈ 7.82 µM) | 31.3 µg/mL (≈ 126 µM) | 0.12 µg/mL (≈ 0.482 µM) | – | – | – | – | – | – | –
O=C(NNc1cc(F)ccc1F)c1ccccn1 [Compound 2h] | 1.95 µg/mL (≈ 7.82 µM) | 0.98 µg/mL (≈ 3.93 µM) | 3.9 µg/mL (≈ 15.6 µM) | 0.98 µg/mL (≈ 3.93 µM) | 1.95 µg/mL (≈ 7.82 µM) | 1.95 µg/mL (≈ 7.82 µM) | 0.12 µg/mL (≈ 0.482 µM) | – | – | – | – | – | – | –
O=C(NNc1cc(F)cc(F)c1)c1ccccn1 [Compound 2i] | 1.95 µg/mL (≈ 7.82 µM) | 0.49 µg/mL (≈ 1.97 µM) | 0.98 µg/mL (≈ 3.93 µM) | 0.98 µg/mL (≈ 3.93 µM) | 0.98 µg/mL (≈ 3.93 µM) | 0.98 µg/mL (≈ 3.93 µM) | ≤ 0.06 µg/mL | – | – | – | – | – | – | –
O=C(NNc1cc(Cl)cc(Cl)c1)c1ccccn1 [Compound 2j] | 3.9 µg/mL (≈ 13.8 µM) | 1.95 µg/mL (≈ 6.91 µM) | 1.95 µg/mL (≈ 6.91 µM) | 0.98 µg/mL (≈ 3.47 µM) | 1.95 µg/mL (≈ 6.91 µM) | 1.95 µg/mL (≈ 6.91 µM) | 0.24 µg/mL (≈ 0.851 µM) | – | – | – | – | – | – | –
O=C(NNc1cccc(F)c1)c1ccc(F)cn1 [Compound 3a] | – | – | – | – | – | – | – | 3.9 μg/mL^−1 | 1.95 μg/mL^−1 | 3.9 μg/mL^−1 | 3.9 μg/mL^−1 | 0.49 μg/mL^−1 | 3.9 μg/mL^−1 | 0.49 μg/mL^−1
COc1cccc(NNC(=O)c2ccc(F)cn2)c1 [Compound 3c] | – | – | – | – | – | – | – | 1.95 μg/mL^−1 | 0.98 μg/mL^−1 | 0.49 μg/mL^−1 | 3.9 μg/mL^−1 | 0.95 μg/mL^−1 | 1.95 μg/mL^−1 | 0.24 μg/mL^−1
O=C(NNc1ccc(F)cc1)c1ccc(F)cn1 [Compound 3d] | – | – | – | – | – | – | – | 1.95 μg/mL^−1 | 1.95 μg/mL^−1 | 3.9 μg/mL^−1 | 1.95 μg/mL^−1 | 1.95 μg/mL^−1 | 3.9 μg/mL^−1 | 0.49 μg/mL^−1
O=C(NNc1ccc(Cl)cc1)c1ccc(F)cn1 [Compound 3e] | – | – | – | – | – | – | – | 1.95 μg/mL^−1 | 0.98 μg/mL^−1 | 1.95 μg/mL^−1 | 3.9 μg/mL^−1 | 1.95 μg/mL^−1 | 1.95 μg/mL^−1 | 1.95 μg/mL^−1
COc1ccc(NNC(=O)c2ccc(F)cn2)cc1 [Compound 3f] | – | – | – | – | – | – | – | 0.49 μg/mL^−1 | 0.49 μg/mL^−1 | 0.98 μg/mL^−1 | 0.98 μg/mL^−1 | 0.98 μg/mL^−1 | 0.98 μg/mL^−1 | 0.24 μg/mL^−1
O=C(NNc1ccc(F)cc1F)c1ccc(F)cn1 [Compound 3g] | 1.95 µg/mL (≈ 7.3 µM) | 0.98 µg/mL (≈ 3.67 µM) | 1.95 µg/mL (≈ 7.3 µM) | 1.95 µg/mL (≈ 7.3 µM) | 1.95 µg/mL (≈ 7.3 µM) | 1.95 µg/mL (≈ 7.3 µM) | 0.49 µg/mL (≈ 1.83 µM) | – | – | – | – | – | – | –
O=C(NNc1cccc(F)c1)c1ccc(Br)cn1 [Compound 4a] | – | – | – | – | – | – | – | 3.9 μg/mL^−1 | 0.98 μg/mL^−1 | 1.95 μg/mL^−1 | 3.9 μg/mL^−1 | 0.49 μg/mL^−1 | 3.9 μg/mL^−1 | 0.49 μg/mL^−1
COc1cccc(NNC(=O)c2ccc(Br)cn2)c1 [Compound 4c] | 1.95 µg/mL (≈ 6.05 µM) | 0.98 µg/mL (≈ 3.04 µM) | 0.49 µg/mL (≈ 1.52 µM) | 3.9 µg/mL (≈ 12.1 µM) | 0.98 µg/mL (≈ 3.04 µM) | 1.95 µg/mL (≈ 6.05 µM) | 0.98 µg/mL (≈ 3.04 µM) | – | – | – | – | – | – | –
O=C(NNc1ccc(F)cc1)c1ccc(Br)cn1 [Compound 4d] | 7.8 µg/mL (≈ 25.2 µM) | 1.9 µg/mL (≈ 6.13 µM) | 7.8 µg/mL (≈ 25.2 µM) | 7.8 µg/mL (≈ 25.2 µM) | 7.8 µg/mL (≈ 25.2 µM) | 7.8 µg/mL (≈ 25.2 µM) | 1.95 µg/mL (≈ 6.29 µM) | – | – | – | – | – | – | –
COc1ccc(NNC(=O)c2ccc(Br)cn2)cc1 [Compound 4f] | 0.98 µg/mL (≈ 3.04 µM) | 1.95 µg/mL (≈ 6.05 µM) | 1.95 µg/mL (≈ 6.05 µM) | 3.9 µg/mL (≈ 12.1 µM) | 3.9 µg/mL (≈ 12.1 µM) | 3.9 µg/mL (≈ 12.1 µM) | 3.9 µg/mL (≈ 12.1 µM) | – | – | – | – | – | – | –
O=C(NNc1ccc(F)cc1F)c1ccc(Br)cn1 [Compound 4g] | 1.95 µg/mL (≈ 5.94 µM) | 15.6 µg/mL (≈ 47.5 µM) | 0.98 µg/mL (≈ 2.99 µM) | 3.9 µg/mL (≈ 11.9 µM) | 15.6 µg/mL (≈ 47.5 µM) | > 31.3 µg/mL | 3.9 µg/mL (≈ 11.9 µM) | – | – | – | – | – | – | –
O=C(NNc1cccc(F)c1)c1cccc(F)n1 [Compound 5a] | – | – | – | – | – | – | – | 1.95 μg/mL^−1 | 1.95 μg/mL^−1 | 3.9 μg/mL^−1 | 7.8 μg/mL^−1 | 0.49 μg/mL^−1 | 1.95 μg/mL^−1 | 0.49 μg/mL^−1
